Experimental data taken from patent US20100190982A1, “PROCESS FOR THE PREPARATION OF LAMIVUDINE FORM I” (priority 2007, published 2010).
Read-outs that look alike come from different tables or passages of the source.

Legend:
[1] = as stated in U.S. Pat. No. 5,905,082, cited from earlier work
[2] = Grinding / milling of Form I crystals, polymorphic change; format: physicochemical
Method: (§1) Therefore our endeavour was to prepare Lamivudine polymorph Form I, which is storage stable and remains unchanged during preparation of solid doses form. […] (under reduced pressure). Data has been generated up to 72 h drying at 80° C.

[3] = Drying of Form I crystals at 80° C. (under reduced pressure), polymorphic change; format: physicochemical; details: for conversion of Form I to Form II on drying: drying at 80° C. (under reduced pressure)
Method: as §1
In the present invention, the Lamivudine polymorphic Form I obtained is 100% pure.

[4] = Stability testing at 60° C.; format: physicochemical; details: two months
[5] = Storage of Form I crystals, polymorphic change; format: physicochemical
Method: as §1

| SMILES | relative stability of polymorphic form [1] | change in polymorphic form on grinding ([2]; grinded neat for 5-15 min at 20-30° C.) | conversion of Form I to Form II on drying [3] | conversion of Form I to Form II on drying ([3]; listed as Lamivudine polymorphic Form I) | polymorphic change on drying ([3]; up to 72 h drying at 80° C. (under reduced pressure)) | chemical degradation in stability testing [4] | polymorphic change in stability testing [4] | relative stability of polymorphic form ([1]; listed as Form I crystals) | conversion of Form I to Form II in pharmaceutical unit operations ([1]; milling/grinding) | conversion to Form II when milled/grinded ([2]; milled/grinded) | conversion to Form II on storage [5] |
| --- | --- | --- | --- | --- | --- | --- | --- | --- | --- | --- | --- |
| Nc1ccn([C@@H]2CS[C@H](CO)O2)c(=O)n1 [Form II, Lamivudine] | more stable polymorphic form | – | – | – | – | – | – | – | – | – | – |
| Nc1ccn([C@@H]2CS[C@H](CO)O2)c(=O)n1 [Lamivudine Form I crystals prepared by the process of instan] | – | no change in polymorphic form has been observed | do not convert to Form II | does not change into other polymorphic form | no polymorphic change has been observed | neither chemical degradation | nor polymorphic change was observed | – | – | – | – |
| Nc1ccn([C@@H]2CS[C@H](CO)O2)c(=O)n1 [Lamivudine polymorphic Form I prepared by crystallisation fr] | – | – | partially converted into Form II | – | – | – | – | less stable | may cause conversion of Form I to Form II | partial conversion to Form II was observed | partially converted into Form II |
